Key:
Experiment in all cases: relative viability (nuclei count vs DMSO), 5 days (fraction); higher = more cells survive
NCI-H2009 = tested on: NCI-H2009
Procedure, shortened: (§1)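 Lung cancer cell lines, seeded in 1536-well plates, were treated the following day by pin tool with a single drug or with five library-drug doses (not always all listed) in √10 steps on top of a fixed anchor-drug dose. Cells were fixed and nuclei stained in one step after 5 days, and nuclei were counted. Relative viability is the nuclei count for treated wells divided by that for vehicle wells, reported as medians of duplicate plates.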

UMC-11 = tested on: UMC-11
Procedure, shortened: as §1

PC-14 = tested on: PC-14
Procedure, shortened: as §1

NCI-H596 = tested on: NCI-H596
Procedure, shortened: as §1

NCI-H1755 = tested on: NCI-H1755
Procedure, shortened: as §1

HCC-827 = tested on: HCC-827
Procedure, shortened: as §1

NCI-H2170 = tested on: NCI-H2170
Procedure, shortened: as §1

NCI-H1650 = tested on: NCI-H1650
Procedure, shortened: as §1

LCLC-97TM1 = tested on: LCLC-97TM1
Procedure, shortened: as §1

HCC-78 = tested on: HCC-78
Procedure, shortened: as §1

SK-LU-1 = tested on: SK-LU-1
Procedure, shortened: as §1

NCI-H727 = tested on: NCI-H727
Procedure, shortened: as §1

NCI-H2023 = tested on: NCI-H2023
Procedure, shortened: as §1

BEN = tested on: BEN
Procedure, shortened: as §1

EKVX = tested on: EKVX
Procedure, shortened: as §1

LK-2 = tested on: LK-2
Procedure, shortened: as §1

EMC-BAC-2 = tested on: EMC-BAC-2
Procedure, shortened: as §1

ABC-1 = tested on: ABC-1
Procedure, shortened: as §1

CAL-12T = tested on: CAL-12T
Procedure, shortened: as §1

NCI-H1437 = tested on: NCI-H1437
Procedure, shortened: as §1

LOU-NH91 = tested on: LOU-NH91
Procedure, shortened: as §1

EPLC-272H = tested on: EPLC-272H
Procedure, shortened: as §1

Question: Which relative viability (NCI-H2009; first compound 0.253 µM) does the source give for `Nc1cccc2c1CN(C1CCC(=O)NC1=O)C2=O` (centres undefined) [Lenalidomide] + C[C@@H](Oc1cc(-c2cnn(C3CCNCC3)c2)cnc1N)c1c(Cl)ccc(F)c1Cl [Crizotinib] (partner 1 µM) here?
Answer: Its relative viability is 1.07.

Question: And the relative viability (NCI-H2009; first compound 0.8 µM)?
Answer: Its relative viability is 1.03.

Question: What about the relative viability (NCI-H2009; first compound 2.53 µM) of the same molecule?
Answer: The relative viability was 1.12.

Question: What about the relative viability (NCI-H2009; first compound 8 µM) of the same molecule?
Answer: The relative viability was 1.1.

Question: What about the relative viability (UMC-11; first compound 0.253 µM) of the same molecule?
Answer: The relative viability was 0.61.

Question: What about the relative viability (UMC-11; first compound 0.8 µM) of the same molecule?
Answer: The relative viability was 0.573.

Question: What about the relative viability (UMC-11; first compound 2.53 µM) of the same molecule?
Answer: Its relative viability is 0.601.

Question: And the relative viability (UMC-11; first compound 8 µM)?
Answer: Its relative viability is 0.644.

Question: What about the relative viability (PC-14; first compound 0.253 µM) of the same molecule?
Answer: Its relative viability is 0.904.

Question: What about the relative viability (PC-14; first compound 0.8 µM) of the same molecule?
Answer: The relative viability was 0.857.

Question: What about the relative viability (PC-14; first compound 2.53 µM) of the same molecule?
Answer: Its relative viability is 0.905.

Question: What about the relative viability (PC-14; first compound 8 µM) of the same molecule?
Answer: Its relative viability is 0.914.

Question: And the relative viability (NCI-H596; first compound 0.253 µM)?
Answer: The relative viability was 1.1.

Question: And the relative viability (NCI-H596; first compound 0.8 µM)?
Answer: Its relative viability is 0.912.

Question: And the relative viability (NCI-H596; first compound 2.53 µM)?
Answer: The relative viability was 1.08.

Question: And the relative viability (NCI-H596; first compound 8 µM)?
Answer: Its relative viability is 0.938.

Question: What about the relative viability (NCI-H1755; first compound 0.253 µM) of the same molecule?
Answer: The relative viability was 0.828.

Question: What about the relative viability (NCI-H1755; first compound 0.8 µM) of the same molecule?
Answer: The relative viability was 0.85.

Question: What about the relative viability (NCI-H1755; first compound 2.53 µM) of the same molecule?
Answer: The relative viability was 0.9.

Question: And the relative viability (NCI-H1755; first compound 8 µM)?
Answer: Its relative viability is 0.821.

Question: What about the relative viability (HCC-827; first compound 0.253 µM) of the same molecule?
Answer: Its relative viability is 1.02.

Question: And the relative viability (HCC-827; first compound 0.8 µM)?
Answer: The relative viability was 1.02.

Question: And the relative viability (HCC-827; first compound 2.53 µM)?
Answer: The relative viability was 0.964.

Question: And the relative viability (HCC-827; first compound 8 µM)?
Answer: The relative viability was 1.06.

Question: And the relative viability (NCI-H2170; first compound 0.253 µM)?
Answer: Its relative viability is 1.21.

Question: And the relative viability (NCI-H2170; first compound 0.8 µM)?
Answer: Its relative viability is 1.14.

Question: And the relative viability (NCI-H2170; first compound 2.53 µM)?
Answer: Its relative viability is 1.17.

Question: And the relative viability (NCI-H2170; first compound 8 µM)?
Answer: Its relative viability is 1.14.

Question: What about the relative viability (NCI-H1650; first compound 0.253 µM) of the same molecule?
Answer: The relative viability was 0.922.

Question: And the relative viability (NCI-H1650; first compound 0.8 µM)?
Answer: The relative viability was 1.03.

Question: And the relative viability (NCI-H1650; first compound 2.53 µM)?
Answer: Its relative viability is 1.11.

Question: What about the relative viability (NCI-H1650; first compound 8 µM) of the same molecule?
Answer: Its relative viability is 1.17.

Question: And the relative viability (LCLC-97TM1; first compound 0.8 µM)?
Answer: The relative viability was 0.511.

Question: And the relative viability (LCLC-97TM1; first compound 2.53 µM)?
Answer: Its relative viability is 0.463.

Question: And the relative viability (LCLC-97TM1; first compound 8 µM)?
Answer: Its relative viability is 0.305.

Question: And the relative viability (HCC-78; first compound 0.253 µM)?
Answer: The relative viability was 0.304.

Question: What about the relative viability (HCC-78; first compound 0.8 µM) of the same molecule?
Answer: Its relative viability is 0.31.

Question: And the relative viability (HCC-78; first compound 2.53 µM)?
Answer: The relative viability was 0.351.

Question: And the relative viability (HCC-78; first compound 8 µM)?
Answer: The relative viability was 0.3.

Question: What about the relative viability (SK-LU-1; first compound 0.253 µM) of the same molecule?
Answer: The relative viability was 1.05.

Question: And the relative viability (SK-LU-1; first compound 0.8 µM)?
Answer: The relative viability was 1.06.

Question: And the relative viability (SK-LU-1; first compound 2.53 µM)?
Answer: Its relative viability is 0.867.

Question: What about the relative viability (SK-LU-1; first compound 8 µM) of the same molecule?
Answer: Its relative viability is 0.852.

Question: And the relative viability (NCI-H727; first compound 0.253 µM)?
Answer: Its relative viability is 0.83.

Question: What about the relative viability (NCI-H727; first compound 2.53 µM) of the same molecule?
Answer: Its relative viability is 0.894.

Question: And the relative viability (NCI-H727; first compound 8 µM)?
Answer: Its relative viability is 0.952.

Question: What about the relative viability (NCI-H2023; first compound 0.253 µM) of the same molecule?
Answer: The relative viability was 0.661.

Question: And the relative viability (NCI-H2023; first compound 0.8 µM)?
Answer: The relative viability was 0.785.

Question: And the relative viability (NCI-H2023; first compound 2.53 µM)?
Answer: Its relative viability is 0.675.

Question: And the relative viability (NCI-H2023; first compound 8 µM)?
Answer: The relative viability was 0.596.

Question: And the relative viability (BEN; first compound 0.253 µM)?
Answer: The relative viability was 1.04.

Question: What about the relative viability (BEN; first compound 0.8 µM) of the same molecule?
Answer: Its relative viability is 0.642.

Question: What about the relative viability (BEN; first compound 2.53 µM) of the same molecule?
Answer: The relative viability was 1.07.

Question: And the relative viability (BEN; first compound 8 µM)?
Answer: Its relative viability is 0.85.

Question: And the relative viability (EKVX; first compound 0.253 µM)?
Answer: Its relative viability is 0.978.

Question: And the relative viability (EKVX; first compound 0.8 µM)?
Answer: The relative viability was 1.05.

Question: What about the relative viability (EKVX; first compound 2.53 µM) of the same molecule?
Answer: Its relative viability is 1.09.

Question: What about the relative viability (EKVX; first compound 8 µM) of the same molecule?
Answer: Its relative viability is 0.998.

Question: What about the relative viability (LK-2; first compound 0.253 µM) of the same molecule?
Answer: Its relative viability is 0.229.

Question: And the relative viability (LK-2; first compound 2.53 µM)?
Answer: The relative viability was 0.216.

Question: What about the relative viability (LK-2; first compound 8 µM) of the same molecule?
Answer: Its relative viability is 0.256.

Question: What about the relative viability (EMC-BAC-2; first compound 0.253 µM) of the same molecule?
Answer: The relative viability was 0.721.

Question: And the relative viability (EMC-BAC-2; first compound 0.8 µM)?
Answer: Its relative viability is 0.679.

Question: And the relative viability (EMC-BAC-2; first compound 2.53 µM)?
Answer: The relative viability was 0.815.

Question: What about the relative viability (EMC-BAC-2; first compound 8 µM) of the same molecule?
Answer: Its relative viability is 0.769.

Question: And the relative viability (ABC-1; first compound 0.253 µM)?
Answer: Its relative viability is 1.06.

Question: And the relative viability (ABC-1; first compound 0.8 µM)?
Answer: Its relative viability is 1.25.

Question: And the relative viability (ABC-1; first compound 2.53 µM)?
Answer: The relative viability was 1.37.

Question: And the relative viability (ABC-1; first compound 8 µM)?
Answer: Its relative viability is 1.43.

Question: And the relative viability (CAL-12T; first compound 0.253 µM)?
Answer: The relative viability was 0.617.

Question: What about the relative viability (CAL-12T; first compound 0.8 µM) of the same molecule?
Answer: Its relative viability is 0.587.

Question: And the relative viability (CAL-12T; first compound 2.53 µM)?
Answer: Its relative viability is 0.692.

Question: And the relative viability (CAL-12T; first compound 8 µM)?
Answer: The relative viability was 0.857.

Question: What about the relative viability (NCI-H1437; first compound 0.253 µM) of the same molecule?
Answer: Its relative viability is 1.01.

Question: And the relative viability (NCI-H1437; first compound 0.8 µM)?
Answer: The relative viability was 0.917.

Question: What about the relative viability (NCI-H1437; first compound 2.53 µM) of the same molecule?
Answer: Its relative viability is 1.02.

Question: What about the relative viability (NCI-H1437; first compound 8 µM) of the same molecule?
Answer: Its relative viability is 0.938.

Question: What about the relative viability (LOU-NH91; first compound 0.253 µM) of the same molecule?
Answer: Its relative viability is 0.73.

Question: And the relative viability (LOU-NH91; first compound 0.8 µM)?
Answer: Its relative viability is 0.732.

Question: What about the relative viability (LOU-NH91; first compound 2.53 µM) of the same molecule?
Answer: The relative viability was 0.714.

Question: And the relative viability (LOU-NH91; first compound 8 µM)?
Answer: Its relative viability is 0.704.

Question: What about the relative viability (EPLC-272H; first compound 0.253 µM) of the same molecule?
Answer: The relative viability was 0.838.

Question: What about the relative viability (EPLC-272H; first compound 2.53 µM) of the same molecule?
Answer: Its relative viability is 0.802.

Question: What about the relative viability (EPLC-272H; first compound 8 µM) of the same molecule?
Answer: The relative viability was 0.8.

From the supplement of paper PMC10307832
